Experimental findings from patent US8546377B2 (AbbVie Inc., priority 2009, dated 2013) are described below.

The target of one experiment is T1, 5HT2B receptors (Homo sapiens, UniProt P41595).
T1 construct: expressed in transfected cells; host or cells: CHO-K1 cells
Kind of experiment: Human 5-HT2B functional assay in CHO-K1 cells (calcium flux, FLIPR). The class given is cell-based. The protocol: (§1) (iii) Human 5-HT2C and 5-HT2B Functional Assay in CHO-K1 Cells
(§2) CHO-K1 cells over-expressing 5HT2C or 5HT2B receptors were grown in 1272 cm^2 flasks to 70-80% confluency in UltraCHO media supplemented with 1% dialyzed fetal bovine serum (FBS), 250 μg/mL zeocin, 100 U/mL penicillin/streptomycin, and 400 μg/mL geneticin. The cells were dissociated from the flasks using 0.05% trypsin, resuspended in freezing media and stored in liquid nitrogen until use. Calcium flux experiments were done using frozen cells. The cells were diluted in media containing 1% dialyzed FBS and 100 U/mL penicillin/streptomycin and plated into 384-well poly-D-Lysine coated plates (15,000 cells/well). Then the plates were incubated overnight in a cell incubator at 37° C., 5% CO2. On the next day, the growth media was replaced with media without FBS and further incubated overnight. On day three, the changes in intracellular Ca^2+ were determined using calcium sensitive fluorescent dye, Ca4 (MDS Analytical Technologies, Sunnyvale, Calif.) by loading 15 μL of diluted dye with 2.5 mM probenecid into the cells containing media and incubated at room temperature for 60 minutes in dark.
(§3) Fluorescence measurements were read at 25° C. at an excitation wavelength of 480 nm and an emission wavelength of 530 nm in FLIPR (MDS). Baseline fluorescence was measured for the first 10 seconds and then 15 μL of 4× concentrations of serotonin/test compounds was added to the cell plate. The fluorescence intensity was captured every second for the first 1 minute followed by every 5 seconds for an additional 2 minutes. The increase in fluorescent response was determined and was normalized to the response of serotonin. The concentration response of compounds was done from a starting concentration of 10 μM, 1:10 dilution across 6 wells with a final dimethyl sulfoxide concentration of 0.2% and was fitted using a 4-parameter logistic equation. The concentration at which a compound exerts half its maximal effect was named as ‘effective concentration 50’ or ‘EC50’.
(§4) Emax is the maximum functional response or efficacy expressed as a percentage relative to the effect of serotonin.
(In general: Calcium flux is commonly read through the fluorescence of an indicator in the cells.)

For the next experiment, the target named is T2, 5HT2C receptors (Homo sapiens, UniProt P28335).
T2 sequence (P28335 33-458): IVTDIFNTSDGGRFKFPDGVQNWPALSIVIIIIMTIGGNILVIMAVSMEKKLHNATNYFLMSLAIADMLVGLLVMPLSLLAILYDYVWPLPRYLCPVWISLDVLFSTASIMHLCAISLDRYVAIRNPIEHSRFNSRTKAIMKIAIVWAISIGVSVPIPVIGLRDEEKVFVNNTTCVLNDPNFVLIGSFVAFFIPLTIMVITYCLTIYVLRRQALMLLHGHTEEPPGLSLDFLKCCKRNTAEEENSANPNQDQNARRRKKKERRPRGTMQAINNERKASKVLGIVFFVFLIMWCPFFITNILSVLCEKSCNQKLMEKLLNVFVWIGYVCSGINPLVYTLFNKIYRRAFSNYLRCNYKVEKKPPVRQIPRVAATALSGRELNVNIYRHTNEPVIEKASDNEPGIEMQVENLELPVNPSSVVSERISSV
As to the kind of experiment: Human 5-HT2C functional assay in CHO-K1 cells (calcium flux, FLIPR). Particulars: for Emax: percentage relative to the effect of serotonin. The class given is cell-based. Also noted: expressed in transfected cells; host or cells: CHO-K1 cells. The protocol:
as §1, §2, §3, §4

Where [1] appears, read: CHO-K1 cells over-expressing 5HT2B, calcium flux, read-out: EC50 (μM), 5-HT2B Agonist Activity.
Setting [2] is: CHO-K1 cells over-expressing 5HT2C, calcium flux, read-out: EC50 (μM), 5-HT2c Agonist Activity.
[3] abbreviates: CHO-K1 cells, read-out: Emax (%), 5-HT2c Agonist Activity.
The mark [4] stands for this setting: CHO-K1, read-out: Emax (%), 5-HT2c Agonist Activity, CHO-K1 cells.
The mark [5] stands for this setting: CHO-K1 cells, percentage relative to the effect of serotonin, read-out: Emax (%), 5-HT2B Agonist Activity.
[6] abbreviates: CHO-K1, read-out: Emax (%), 5-HT2B Agonist Activity.

The structures appear in SMILES notation. Like-named read-outs stand apart in the source and are kept apart here.

T1 sequence (P41595 whole entry): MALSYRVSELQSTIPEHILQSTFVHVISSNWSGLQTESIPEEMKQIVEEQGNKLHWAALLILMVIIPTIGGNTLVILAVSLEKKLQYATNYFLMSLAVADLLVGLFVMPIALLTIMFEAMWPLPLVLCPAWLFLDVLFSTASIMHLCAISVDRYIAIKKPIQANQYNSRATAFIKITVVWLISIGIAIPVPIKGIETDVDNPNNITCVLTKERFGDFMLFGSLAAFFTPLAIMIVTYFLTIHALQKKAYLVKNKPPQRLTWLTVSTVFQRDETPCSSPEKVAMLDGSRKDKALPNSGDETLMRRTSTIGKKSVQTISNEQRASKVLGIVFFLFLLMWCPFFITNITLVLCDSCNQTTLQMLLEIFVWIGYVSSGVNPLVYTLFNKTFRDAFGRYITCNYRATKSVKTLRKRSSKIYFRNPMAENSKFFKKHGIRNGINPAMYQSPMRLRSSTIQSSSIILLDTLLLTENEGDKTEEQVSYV

The EC50 is the midpoint of the concentration-response curve. The term Emax denotes the greatest response seen or fitted, relative to the assay's reference. Consider `C[C@@H](Cc1ccccc1)Oc1ccc2c(c1)N1CCNCC1CC(=O)N2` (stereo partly drawn) [Example 160, 10-{[(2S)-1-phenylpropan-2-yl]oxy}-1,2,3,4,4a,5-hexahydropyrazino[1,2-a][1,5]benzodiazepin-6(7H)-one], for which the EC50 at 5HT2B receptors (setting [1]) is over 10 µM; on 5HT2C receptors (setting [2]), 0.0797 µM. For the same compound, the Emax at 5HT2C receptors (setting [3]) is over 120%.
As for `Nc1ccc2c(c1)OCC[C@H]1CNCCN21` [Example 135, (4aS)-2,3,4,4a,5,6-hexahydro-1H-pyrazino[2,1-d][1,5]benzoxazepin-9-amine], the EC50 is over 10 µM on 5HT2B receptors (setting [1]) and 1 µM at 5HT2C receptors (setting [2]). For the same compound, at 5HT2C receptors (setting [4]), the maximal effect (Emax) amounted to 80%.
Take `O=C1CC2CNCCN2c2ccc(Cl)cc2N1` (stereo not shown) [Example 51, 9-chloro-1,2,3,4,4a,5-hexahydropyrazino[1,2-a][1,5]benzodiazepin-6(7H)-one]: the figures for the half-maximal effective concentration (EC50) on 5HT2B receptors and at 5HT2C receptors were over 10 µM and 0.07 µM, respectively. Also, at 5HT2C receptors (setting [4]), the Emax worked out at 90%.
On to `O=C1CC2CNCCN2c2cc(-c3cccc(C(F)(F)F)c3)ccc2N1` (stereo not shown) [Example 90, 10-[3-(trifluoromethyl)phenyl]-1,2,3,4,4a,5-hexahydropyrazino[1,2-a][1,5]benzodiazepin-6(7H)-one], for which the EC50 on 5HT2B receptors (setting [1]) was over 10 µM; on 5HT2C receptors (setting [2]), 0.02 µM. For the same compound, the Emax at 5HT2C receptors (setting [3]) was over 120%.
On to `Cc1ccc2c(c1)OCC[C@H]1CNCCN21` [Example 133, (4aS)-9-methyl-2,3,4,4a,5,6-hexahydro-1H-pyrazino[2,1-d][1,5]benzoxazepine], for which the figures for the EC50 on 5HT2B receptors and at 5HT2C receptors were over 10 µM and 0.01 µM, respectively. For the same compound, the Emax at 5HT2C receptors (setting [4]) stood at 100%.
Take `C[C@@H](Cc1ccccc1)Oc1ccc2c(c1)N1CCNC[C@H]1CC(=O)N2` [Example 167, (4aR)-10-{[(2S)-1-phenylpropan-2-yl]oxy}-1,2,3,4,4a,5-hexahydropyrazino[1,2-a][1,5]benzodiazepin-6(7H)-one]: the EC50 at 5HT2B receptors (setting [1]) is over 10 µM; at 5HT2C receptors (setting [2]), 1 µM. For the same compound, the Emax on 5HT2C receptors (setting [3]) stood at 110%.
As for `O=C1CC2CNCCN2c2cc(CCc3ccccc3F)ccc2N1` (stereo not shown) [Example 144, 10-[2-(2-fluorophenyl)ethyl]-1,2,3,4,4a,5-hexahydropyrazino[1,2-a][1,5]benzodiazepin-6(7H)-one], the EC50 was over 10 µM on 5HT2B receptors (setting [1]) and 0.002 µM at 5HT2C receptors (setting [2]). In addition, the Emax at 5HT2B receptors (setting [5]) is 50%; on 5HT2C receptors (setting [3]), over 120%.
As to `c1ccc(CN2CCN3c4ccccc4OCC[C@H]3C2)cc1` [Example 168, (4aS)-3-benzyl-2,3,4,4a,5,6-hexahydro-1H-pyrazino[2,1-d][1,5]-benzoxazepine], the EC50 on 5HT2B receptors (setting [1]) is over 10 µM; at 5HT2C receptors (setting [2]), 0.9 µM. At 5HT2C receptors (setting [3]), the Emax was 50%.
Regarding `CN1C(=O)CC2CNCCN2c2cc(CCc3ccccc3)ccc21` (stereo not shown) [Example 151, 7-methyl-10-(2-phenylethyl)-1,2,3,4,4a,5-hexahydropyrazino[1,2-a][1,5]benzodiazepin-6(7H)-one], the concentration giving a half-maximal response (EC50) on 5HT2B receptors (setting [1]) turned out to be 5 µM; at 5HT2C receptors (setting [2]), 0.07 µM. The Emax on 5HT2B receptors (setting [5]) is 30%; at 5HT2C receptors (setting [3]), 110%.
For `Cc1c(F)ccc2c1OCC[C@H]1CNCCN21` [Example 244], the EC50 at 5HT2B receptors worked out at 0.03 µM; at 5HT2C receptors it was 0.0004 µM. Besides, the Emax on 5HT2B receptors (setting [6]) amounted to 15%; on 5HT2C receptors (setting [4]), 95%.
The like results for `Clc1cc(Cl)c2c(c1)N1CCNC[C@@H]1CCO2` [Example 225, (4aS)-8,10-dichloro-2,3,4,4a,5,6-hexahydro-1H-pyrazino[2,1-d][1,5]benzoxazepine] were, in that order, 0.04 µM, 0.01 µM, 50% and 70%.
As for `CCN1CCN2c3ccccc3OCC[C@H]2C1` [Example 235, (4aS)-3-ethyl-2,3,4,4a,5,6-hexahydro-1H-pyrazino[2,1-d][1,5]benzoxazepine], the EC50 at 5HT2B receptors was over 10 µM; at 5HT2C receptors, 0.02 µM. The Emax on 5HT2C receptors (setting [4]) was determined as 100%.
With `O=C1CC2CNCCN2c2cc(OCCc3cccc(F)c3)ccc2N1` (stereo not shown) [Example 152, 10-[2-(3-fluorophenyl)ethoxy]-1,2,3,4,4a,5-hexahydropyrazino[1,2-a][1,5]benzodiazepin-6(7H)-one], the figures for the EC50 at 5HT2B receptors (setting [1]) and on 5HT2C receptors (setting [2]) were over 10 µM and 0.01 µM, respectively. Further, on 5HT2C receptors (setting [3]), the Emax came out at 100%.
Take `c1ccc2c(c1)OCC[C@@H]1CNCCN21` [Example 255, (4aR)-2,3,4,4a,5,6-hexahydro-1H-pyrazino[2,1-d][1,5]benzoxazepine]: the results for the EC50 at 5HT2B receptors and at 5HT2C receptors were 0.09 µM and 0.001 µM, respectively. The results for the maximum response (Emax) on 5HT2B receptors (setting [6]) and on 5HT2C receptors (setting [4]) were 70% and 95%, respectively.
With `O=C1CC2CNCCN2c2cc(-c3ccccn3)ccc2N1` (stereo not shown) [Example 71, 10-(pyridin-2-yl)-1,2,3,4,4a,5-hexahydropyrazino[1,2-a][1,5]benzodiazepin-6(7H)-one], the EC50 turned out to be 0.02 µM on 5HT2B receptors and 0.002 µM on 5HT2C receptors. Besides, the Emax at 5HT2B receptors (setting [6]) was 100%; at 5HT2C receptors (setting [4]), over 120%.
Consider `Fc1ccc2c(c1)OCC[C@H]1CNCCN21` [Example 136, (4aS)-9-fluoro-2,3,4,4a,5,6-hexahydro-1H-pyrazino[2,1-d][1,5]benzoxazepine], for which the EC50 was found to be 0.1 µM on 5HT2B receptors and 0.002 µM on 5HT2C receptors. The Emax was 20% at 5HT2B receptors (setting [6]) and over 120% on 5HT2C receptors (setting [4]).
Take `CC(O)c1cccc(-c2ccc3c(c2)N2CCNC[C@@H]2CCO3)c1` (stereo partly drawn) [Example 222, 1-{3-[(4aS)-2,3,4,4a,5,6-hexahydro-1H-pyrazino[2,1-d][1,5]benzoxazepin-10-yl]phenyl}ethanol]: the values for the EC50 on 5HT2B receptors (setting [1]) and at 5HT2C receptors (setting [2]) were 0.4 µM and 0.0008 µM, respectively. The Emax at 5HT2B receptors (setting [5]) worked out at 50%; on 5HT2C receptors (setting [3]), 100%.
As to `CS(=O)(=O)c1cccc(-c2ccc3c(c2)OCC[C@H]2CNCCN32)c1` [Example 238, (4aS)-9-[3-(methylsulfonyl)phenyl]-2,3,4,4a,5,6-hexahydro-1H-pyrazino[2,1-d][1,5]benzoxazepine], the figures for the EC50 at 5HT2B receptors (setting [1]) and at 5HT2C receptors (setting [2]) were over 10 µM and 0.3 µM, respectively. At 5HT2C receptors (setting [3]), the Emax is 90%.
Turning to `Clc1cccc2c1OCC[C@H]1CNCCN21` [Example 138, (4aS)-8-chloro-2,3,4,4a,5,6-hexahydro-1H-pyrazino[2,1-d][1,5]benzoxazepine], the EC50 is over 10 µM at 5HT2B receptors and 0.0007 µM at 5HT2C receptors. For the same compound, at 5HT2C receptors (setting [4]), the Emax was over 120%.
Turning to `CCc1cccc(-c2ccc3c(c2)N2CCNCC2CC(=O)N3)c1` (stereo not shown) [Example 91, 10-(3-ethylphenyl)-1,2,3,4,4a,5-hexahydropyrazino[1,2-a][1,5]-benzodiazepin-6(7H)-one], the figures for the EC50 at 5HT2B receptors (setting [1]) and at 5HT2C receptors (setting [2]) were over 10 µM and 0.01 µM, respectively. Further, the Emax on 5HT2C receptors (setting [3]) is over 120%.
Take `Cc1ccc2c(c1)N1CCNC[C@H]1CCO2` [Example 257, (4aR)-10-methyl-2,3,4,4a,5,6-hexahydro-1H-pyrazino[2,1-d][1,5]benzoxazepine]: the results for the EC50 on 5HT2B receptors and at 5HT2C receptors were 0.02 µM and 0.001 µM, respectively. Further, the Emax on 5HT2B receptors (setting [6]) was 60%; at 5HT2C receptors (setting [4]), 90%.
On to `CC(O)c1cccc(-c2cccc3c2OCC[C@H]2CNCCN32)c1` (stereo partly drawn) [Example 233, 1-{3-[(4aS)-2,3,4,4a,5,6-hexahydro-1H-pyrazino[2,1-d][1,5]benzoxazepin-8-yl]phenyl}ethanol], for which the values for the EC50 at 5HT2B receptors (setting [1]) and at 5HT2C receptors (setting [2]) were over 10 µM and 0.003 µM, respectively. The Emax on 5HT2C receptors (setting [3]) was found to be 105%.
Turning to `Cc1ccc2c(c1)N1CCNC[C@@H]1CCO2` [Example 137, (4aS)-10-methyl-2,3,4,4a,5,6-hexahydro-1H-pyrazino[2,1-d][1,5]benzoxazepine], the results for the EC50 on 5HT2B receptors and on 5HT2C receptors were 0.05 µM and 0.002 µM, respectively. Further, the Emax on 5HT2B receptors (setting [6]) is 60%; on 5HT2C receptors (setting [4]), over 120%.
